From US11116774B2, “Modulators of toll-like receptors for the treatment of HIV” (Gilead Sciences, Inc., priority 2014, dated 2021)
Where “and” joins values, the source holds several entries; their conditions need not be identical. Identical values can stand only once. Like-named read-outs stand apart in the source and are kept apart here.

What was measured:
[1] = tested on: simian immunodeficiency virus (SIV); test: TLR7 modulating compound in SIV+ viremic rhesus at chronic set point: plasma viral load by quantitative RT-PCR (Example 203); format: in vivo, rhesus macaques
Protocol: Five chronically infected, SIV^+ rhesus macaques were either treated with the compound of Example 4 (n=3 animals) or with dosing vehicle (placebo, n=2 animals) in a multiple-dose, dose escalation, placebo controlled study. […] The animals were not administered combination antiretroviral therapy during any part of the study.
The animals were dosed once weekly by oral gavage (via nasogastric tube) with either the compound of Example 4 or placebo. Three animals were administered the compound of Example 4, prepared as described in Example 201. The first week, 1 mL/kg of the 0.1 mg/mL formulation was administered, corresponding to a dose of 0.1 mg/kg. The second week, 1 mL/kg of the 0.2 mg/mL formulation was administered, corresponding to a dose of 0.2 mg/kg. On weeks three through five, 1 mL/kg of the 0.3 mg/mL formulation was administered, corresponding to a dose of 0.3 mg/kg. Each week, two animals (placebo group) were administered the dosing vehicle as described in Example 201 at 1 mL/kg.
Each formulation of Example 201 or dosing vehicle only (placebo) was used fresh and thawed to room temperature prior to dosing. Plasma viral loads (expressed as SIV RNA copies per mL of plasma) were determined by quantitative RT-PCR of the SIV RNA measuring the gag gene transcripts at various times throughout the study for animals administered the compound of Example 4 and the placebo animals. […]

[2] = tested on: CD3+CD4+ lymphocytes in PBMC cultures from HIV-1 infected donors; test: In vitro lymphocyte subset activation in PBMC cultures, CD69 on CD4+ lymphocytes (Example 207); format: cell-based, human; settings: 24 hours; for CD69 Expression on CD3+CD4+ Lymphocytes, Mean Maximum Expression Background Subtracted: mean of donors 120-123; for CD69 Expression on CD3+CD4+ Lymphocytes, Maximum Expression (Actual %) / CD69 Expression on CD3+CD4+ Lymphocytes, Maximum Expression Background Subtracted: per donor, PBMC from HIV-1 infected donors
Protocol: (§1) Total PBMC cultures were treated with various concentrations of the identified TLR7 modulating compounds (Compounds of Example 4 and Example 49) for 24 hours. At the end of the incubation period, total PBMC were harvested and stained with antibodies conjugated to specific fluorophores to delineate human CD4 lymphocytes (CD3+CD4+CD8−) or CD8 lymphocytes (CD3+CD8+CD4-) and co-expressing the early activation marker CD69. Cells were analyzed by flow cytometry and data collected on an LSR FortessaX20 instrument (BD Biosciences).

[3] = tested on: CD3+CD8+ lymphocytes in PBMC cultures from healthy and HIV-1 infected donors; test: In vitro lymphocyte subset activation in PBMC cultures, CD69 on CD8+ lymphocytes (Example 207); format: cell-based, human; settings: 24 hours; for CD69 Expression on CD3+CD8+ Lymphocytes, Mean Maximum Expression Background Subtracted: mean of donors 120-123; for CD69 Expression on CD3+CD8+ Lymphocytes, Maximum Expression (Actual %) / CD69 Expression on CD3+CD8+ Lymphocytes, Maximum Expression Background Subtracted: per donor, PBMC cultures
Protocol: as §1

[4] = tested on: HIV-1 expression in PBMC cultures from HIV-1 infected donors on cART; test: Induced HIV-1 expression in PBMC cultures from HIV-1 infected donors on cART (Example 208); format: cell-based, human; settings: for fold induction at 0.01 µM / fold induction at 0.1 µM / fold induction at 0.156 µM / fold induction at 1 µM / fold induction at 2.5 µM / fold induction at 10 µM: Human immunodeficiency virus 1, PBMC; for fold induction at 0.01 µM: read-out: Fold HIV-1 Induction, Geometric Mean, 0.01 μM; for fold induction at 0.01 µM / fold induction at 0.156 µM / fold induction at 2.5 µM: donors 152-155; for fold induction at 0.1 µM: read-out: Fold HIV-1 Induction, Geometric Mean, 0.1 μM; for fold induction at 0.1 µM / fold induction at 1 µM: donors 122, 124-128; for fold induction at 0.156 µM: read-out: Fold HIV-1 Induction, Geometric Mean, 0.156 μM; for fold induction at 1 µM: read-out: Fold HIV-1 Induction, Geometric Mean, 1 μM; for fold induction at 2.5 µM: read-out: Fold HIV-1 Induction, Geometric Mean, 2.5 μM; for fold induction at 10 µM: read-out: Fold HIV-1 Induction, Geometric Mean, 10 μM, donors 124-127; for patients whose cultures showed two-fold or higher activation over the DMSO control: 4 to 5 days, with elvitegravir and efavirenz 100 nM each
Protocol: Isolated PBMCs were treated with various concentrations (0.1, 1, and 10 μM) of the TLR7 modulating compounds (compounds of Example 4 and Example 49) or dimethyl sulfoxide (DMSO) treated (vehicle control) for 4 to 5 days. The cultures were maintained in the presence of antivirals (elvitegravir and efavirenz at 100 nM each) to prevent viral spread and amplification in order to measure initial virus production (latency reversal) created by the TLR7 modulating compounds. At the end of the incubation period cell-free culture supernatants were harvested and HIV-1 RNA levels were quantified by the COBAS® AmpliPrep/COBAS® TaqMan HIV-1 Test, v2.0 (Roche).
Using the method described above in Example 208, HIV-1 expression in PBMC cultures derived from four additional HIV-1 infected donors on cART were tested in the presence of the compounds of Examples 4, 29, 120, 121, 122, 123, 124, resiquimod, and imiquimod.

HIV-1BaL = test: Antiviral activity on in vitro HIV-1 infected PBMC cultures, Gag p24 ELISA (Example 209); format: cell-based; settings: Human immunodeficiency virus 1, 144 h, PHA-stimulated human PBMC infected with HIV-1BaL, six days with IL-2, Gag p24
Protocol: Antiretroviral activity was assessed by testing the TLR7 modulating compounds (Compounds of Example 4 and Example 49) in total human PBMC cultures that were first treated with mitogen (phytohemogglutinin A) for two days prior to infection with HIV-1BaL. Infected cells were cultured in the presence of interleukin-2 and various concentrations of the TLR7 modulating compounds or the nucleoside analog HIV-1 reverse transcriptase inhibitor azidothymidine (AZT, positive control) for six days. At the end of the incubation period, cell-free culture supernatants were harvested and antiviral activity determined by measuring production of HIV-1 Gag p24 by commercially available ELISA kits.

[5] = at least 8 independent donors, read-out: Range EC50
[6] = mean ± SD from at least 8 independent donors, read-out: Mean EC50

CCCCOc1nc(N)c2c(n1)N(Cc1ccc(CN3CCCC3)cc1)CC(=O)N2 [Example 4]
plasma viral load ([1]; animal with the lowest chronic set point, undetectable for at least 100 days following the last dose (FIG. 1)): < 50 RNA copies/mL
sustained decrease in viral load set point compared to pre-dose ([1]; second animal, log10 RNA copies, maintained at least 100 days following the last dose (FIG. 2)): approximately 1 log order
CD69 Expression on CD3+CD4+ Lymphocytes, Mean Maximum Expression Background Subtracted [2]: 22%
CD69 Expression on CD3+CD4+ Lymphocytes, Maximum Expression (Actual %) [2]: 57% and 41% and 26% and 24%
CD69 Expression on CD3+CD4+ Lymphocytes, Maximum Expression Background Subtracted [2]: 19% and 21% and 25% and 24%
CD69 Expression on CD3+CD8+ Lymphocytes, Mean Maximum Expression Background Subtracted [3]: 32%
CD69 Expression on CD3+CD8+ Lymphocytes, Maximum Expression (Actual %) [3]: 60% and 44% and 35% and 32%
CD69 Expression on CD3+CD8+ Lymphocytes, Maximum Expression Background Subtracted [3]: 36% and 30% (2×) and 33%
Donors with ≥2-fold HIV-1 Induction ([4]; 0.01 μM, Tables 7-11): 4 of 4
Donors with ≥2-fold HIV-1 Induction ([4]; 0.1 μM, Table 6): 4 of 6
Donors with ≥2-fold HIV-1 Induction ([4]; 0.156 μM, Tables 7-11): 4 of 4
Donors with ≥2-fold HIV-1 Induction ([4]; 1 μM, Table 6): 3 of 6
Donors with ≥2-fold HIV-1 Induction ([4]; 2.5 μM, Tables 7-11): 4 of 4
Donors with ≥2-fold HIV-1 Induction ([4]; 10 μM, Table 6): 3 of 4
fold induction at 0.01 µM ([4]; Tables 7-11): 4.3
fold induction at 0.1 µM ([4]; Table 6): 2
fold induction at 0.156 µM ([4]; Tables 7-11): 5.3
fold induction at 1 µM ([4]; Table 6): 1.6
fold induction at 2.5 µM ([4]; Tables 7-11): 4
fold induction at 10 µM ([4]; Table 6): 3.9
EC50 (HIV-1BaL; [5]): 0.8 to 81 nM
EC50 (HIV-1BaL; [6]): 33 ± 35 nM

CCCCOc1nc(N)c2c(n1)N(Cc1cccc(CN3CCCC3)c1)CC(=O)N2 [Example 49]
CD69 Expression on CD3+CD4+ Lymphocytes, Mean Maximum Expression Background Subtracted [2]: 22%
CD69 Expression on CD3+CD4+ Lymphocytes, Maximum Expression (Actual %) [2]: 59% and 39% and 24% and 25%
CD69 Expression on CD3+CD4+ Lymphocytes, Maximum Expression Background Subtracted [2]: 21% and 20% and 23% and 24%
CD69 Expression on CD3+CD8+ Lymphocytes, Mean Maximum Expression Background Subtracted [3]: 31%
CD69 Expression on CD3+CD8+ Lymphocytes, Maximum Expression (Actual %) [3]: 55% and 43% and 35% and 32%
CD69 Expression on CD3+CD8+ Lymphocytes, Maximum Expression Background Subtracted [3]: 31% and 29% and 33% and 30%
Donors with ≥2-fold HIV-1 Induction ([4]; 0.01 μM, Tables 7-11): 2 of 4
patients whose cultures showed two-fold or higher activation over the DMSO control ([4]; 0.1 μM): 4 of 6
Donors with ≥2-fold HIV-1 Induction ([4]; 0.1 μM, Table 6): 3 of 6
Donors with ≥2-fold HIV-1 Induction ([4]; 0.156 μM, Tables 7-11): 4 of 4
patients whose cultures showed two-fold or higher activation over the DMSO control ([4]; 1 μM): 3 of 6
Donors with ≥2-fold HIV-1 Induction ([4]; 1 μM, Table 6): 4 of 6
Donors with ≥2-fold HIV-1 Induction ([4]; 2.5 μM, Tables 7-11): 4 of 4
patients whose cultures showed two-fold or higher activation over the DMSO control ([4]; 10 μM): 1 of 4
Donors with ≥2-fold HIV-1 Induction ([4]; 10 μM, Table 6): 1 of 4
fold induction at 0.01 µM ([4]; Tables 7-11): 4
fold induction at 0.1 µM ([4]; Table 6): 2.3
fold induction at 0.156 µM ([4]; Tables 7-11): 6.7
fold induction at 1 µM ([4]; Table 6): 2.8
fold induction at 2.5 µM ([4]; Tables 7-11): 9.4
fold induction at 10 µM ([4]; Table 6): 1.4
EC50 (HIV-1BaL; [5]): 4 to 691 nM
EC50 (HIV-1BaL; [6]): 170 ± 240 nM
